Assay results: US11596622B2, “Mazindol treatment for heroin dependence and substance use disorder” (NLS Pharmaceutics AG, priority 2017, dated 2023)

Test system: C57BL/6J mice
Assay: Conditioned place preference induced by the drug itself
Assay type: in vivo
Text: Conditioned place preference (CPP) is a widely used procedure for studying the potential addictive effect of drugs. CPP is based upon the tendency of rodents to approach a stimulus that has previously been paired with an incentive state induced by a drug. A drug that induces a CPP may be suspected to present reinforcing effects that could lead to addiction. Numerous addictive drugs, such as opiate agonists or stimulants induce a CPP and a behavioral sensitization.
The effect of mazindol on place preference was examined in C57BL/6J mice using a method similar to the one used by Schlussman et al. (9).
The second experiment consisted in determining the optimal dose of heroin which induces the most significant CPP. For this purpose, the CPP induced by heroin at 1.25, 2.5 and 5 mg/kg was examined.
(§1) Following the habituation session (on day 1), animals (N=72) were pseudo-randomly assigned to two groups, a Control group (N=12) and a Heroin group (N=60), in a way that there was no significant difference between the two groups for the total distance travelled in the apparatus and for the percentage of time spent and the percentage distance travelled in the grey compartment and in the striped compartment.
Animals received the following treatments immediately before drug sessions: • Control group: vehicle • Heroin group: heroin (1.25 mg/kg)
as §1, with “three” for “two”, “(N=12),” for “(N=12) and”, “(N=48) and a Mazindol group (N=12),” for “(N=60),”
Animals received the following treatments before drug sessions: • Control group: vehicle, i.p. immediately before session. • Heroin group: heroin (1.25 mg/kg), i.p. immediately before session. • MAZ 2 group: mazindol (2 mg/kg), i.p. 60 min before session.
Animals received the following treatments before preference session: • Control group: vehicle of mazindol, i.p. 60 min before testing. • Hero group: vehicle of mazindol, i.p. 60 min before testing. • Hero-Mz 1 group: mazindol (1 mg/kg), i.p. 60 min before testing. • Hero-Mz 2 group: mazindol (2 mg/kg), i.p. 60 min before testing. • Hero-A 1 group: D-amphetamine (1 mg/kg), i.p. 30 min before testing. • MAZ 2 group: vehicle of mazindol, i.p. 60 min before testing.

[1] = MAZ 2: mazindol 2 mg/kg i.p. 60 min before drug sessions, vehicle before preference session, day 12, mean

With `OC1(c2ccc(Cl)cc2)c2ccccc2C2=NCCN21` (centres unmarked) [Mazindol, 5-(4-chlorophenyl)-2,5-dihydro-3 H-imadazo[2,1-a]isoindol-5-ol] the “Distance travelled in the drug-paired compartment” value [1] was 9013.0 cm, the “Distance travelled in the two compartments (Drug + Vehicle)” value [1] was 14858.2 cm and the “Distance travelled in the vehicle-paired compartment” value [1] was 5845.2 cm. The “Distance travelled, drug-paired minus vehicle-paired compartment” value [1] was 3167.8 cm, the “Time spent in the drug-paired compartment” value [1] was 1077.3 s and the “Time spent in the vehicle-paired compartment” value [1] was 722.7 s. For the same molecule, the “Time spent, drug-paired minus vehicle-paired compartment” value [1] was 354.6 s and the “place preference induced by the drug” value (mazindol 2 mg/kg i.p. before drug sessions) was “induced a place preference”.
